Data as given in patent US20200147243A1, “LIGAND COMPOUND OF ALPHA7 NICOTINIC ACETYLCHOLINE RECEPTOR AND APPLICATION THEREOF” (BEIJING NORMAL UNIVERSITY, priority 2017, published 2020).

What was measured:
[1] = molecular target: T1, 5-hydroxytryptamine receptor (Mus musculus, UniProt P23979); test: Selective experiment in mouse brain, ondanstron pre-injection; assay type: in vivo, Kunming mice; settings: 2 mg/kg ondanstron s.c. 10 min in advance, 60 min after administration
T1 construct: from tissue
T1 sequence (P23979 24-489): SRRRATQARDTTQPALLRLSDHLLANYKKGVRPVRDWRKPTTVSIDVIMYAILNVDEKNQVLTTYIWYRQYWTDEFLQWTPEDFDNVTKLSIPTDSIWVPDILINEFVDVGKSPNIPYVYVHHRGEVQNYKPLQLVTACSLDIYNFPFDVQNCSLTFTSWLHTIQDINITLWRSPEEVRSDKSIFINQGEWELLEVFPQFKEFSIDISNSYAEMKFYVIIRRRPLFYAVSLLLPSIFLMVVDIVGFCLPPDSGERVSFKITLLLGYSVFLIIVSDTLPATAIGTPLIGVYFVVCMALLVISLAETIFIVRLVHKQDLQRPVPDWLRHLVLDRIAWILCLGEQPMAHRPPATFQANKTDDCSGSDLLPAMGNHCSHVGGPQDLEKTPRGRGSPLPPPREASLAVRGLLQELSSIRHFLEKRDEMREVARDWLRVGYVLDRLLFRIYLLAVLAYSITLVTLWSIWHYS
Procedure: The selectivity of radioligand for α4β2 nAChR was explored by subcutaneously injecting 1 mg/kg of cytisine (0.1 mL, with an equal volume of normal saline and 1,2-propanediol as solvents) 5 min in advance, whereas the selectivity for the 5-hydroxytryptamine receptor was explored by subcutaneously injecting 2 mg/kg of ondanstron (0.1 mL, with saline:DMSO=5:1 (V:V) as solvents) 10 min in advance. In the experiment, two groups of mice (n=5, Kunming females, 28-30 g) were injected with 0.1 mL (60 μCi) of [^18F]

[2] = Rat PET imaging (micro-PET/CT); assay type: in vivo; settings: female CD-1 rats, images at 15, 30, 60 min
Procedure: The radioligand [^18F] II-15 (0.3 mL, 200 μCi) was injected into bodies of female CD-1 rats (180-200 g) in a manner of tail vein injection, then the rats were anesthetized with 3% isoflurane to be coma, and the rats were fixed in a prone posture on a micro-PET/CT imaging instrument (Super Argus PET 4R L/CT 180) for small animals, maintaining the rats in an anesthetic state by employing 1% isoflurane in the scanning imaging process. Image acquisition was carried out respectively 15 min, 30 min and 60 min after the administration, to observe the distribution condition of [^18F] II-15 in the brains of the rats.

## O=C1c2cc(N3CCN4CCC3CC4)ccc2-c2cccc([18F])c21 [[^18F] II-15]
[1]
  difference in brain uptake between experimental group and control group: no significant difference
[2]
  time of highest brain uptake in PET images: 15 min
